Target: T1, IRAK3 (Homo sapiens, UniProt Q9Y616)
T1 construct: IRAK Endogenous HTRF Degradation Assay; endogenous in cells
T1 sequence (Q9Y616 1-596): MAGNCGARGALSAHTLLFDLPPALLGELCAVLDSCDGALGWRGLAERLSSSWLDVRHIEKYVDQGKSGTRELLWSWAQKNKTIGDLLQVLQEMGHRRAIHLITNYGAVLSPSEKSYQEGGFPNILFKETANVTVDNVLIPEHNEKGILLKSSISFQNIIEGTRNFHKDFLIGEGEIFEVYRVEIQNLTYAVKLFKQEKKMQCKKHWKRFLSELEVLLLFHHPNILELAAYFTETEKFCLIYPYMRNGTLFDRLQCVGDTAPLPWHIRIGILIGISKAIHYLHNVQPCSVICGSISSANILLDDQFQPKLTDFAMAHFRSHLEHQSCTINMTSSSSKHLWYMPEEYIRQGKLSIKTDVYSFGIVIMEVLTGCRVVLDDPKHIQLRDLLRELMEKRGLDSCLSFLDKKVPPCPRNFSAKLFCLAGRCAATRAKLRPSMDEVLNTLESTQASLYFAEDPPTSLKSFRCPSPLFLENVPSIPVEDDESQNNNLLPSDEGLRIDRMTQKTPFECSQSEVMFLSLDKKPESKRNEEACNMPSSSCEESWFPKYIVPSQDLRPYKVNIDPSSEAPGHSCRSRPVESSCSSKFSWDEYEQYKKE
Experiment: IRAK endogenous HTRF degradation assay (Total-IRAK3 HTRF kit)
Format: cell-based
Conditions: overnight incubation, lowest percentage of protein remaining
In short: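 Cells (~50 k) incubated overnight with 3-fold serial dilutions of compound, then lysed; total IRAK3 read by HTRF (665/615 nm ratio ×10,000), normalized to DMSO as 100%. EC50 from four-parameter logistic fit; Dmax = 100 − Ymin (lowest % protein remaining); DC50 = concentration giving 50% degradation.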

SMILES | IRAK3 HTRF degradation Ymin [%]
O=C1CCC(c2ccc(N3CCN(CCN4CCC(n5cc(Nc6ncc(-c7ccccc7F)n7ccnc67)cn5)CC4)CC3)cc2)C(=O)N1 (stereo not drawn) [Compound 75, 3-(4-(4-(2-(4-(4-((5-(2-fluorophenyl)imidazo [1,2-a]pyrazin-8-yl)amino)-1H-pyrazol-1-yl)piperidin-1-yl)ethyl)piperazin-1-yl)phenyl) piperidine-2,6-dione] | 9.8
Cc1cc(-c2cnc(Nc3cnn([C@H]4CCN(CCN5CCN(c6ccc(C7CCC(=O)NC7=O)cc6)C[C@H]5C)[C@@H](C)C4)c3)c3nccn23)c(F)cc1F (stereo partly drawn) [Compound 35, 3-(4-((R)-4-(2-((2S,4S)-4-(4-((5-(2,4-difluoro-5-methylphenyl)imdazo [1,2-a]pyrazin-8-yl)amino)-1H-pyrazol-1-yl)-2-methylpiperidin-1-yl)ethyl)-3-methylpiperazin-1-yl)phenyl) piperidine-2,6-dione] | 7.6
Cc1cc(-c2cnc(Nc3cnn(C4CCN(CC(=O)N5CCN(c6ccc(C7CCC(=O)NC7=O)cc6)CC5)CC4)c3)c3nccn23)c(F)cc1F (stereo not drawn) [Compound 17, 3-(4-(4-(2-(4-(4-((5-(2,4-difluoro-5-methylphenyl)imidazo[1,2-a]pyrazin-8-yl)amino)-1H-pyrazol-1-yl)piperidin-1-yl)acetyl)piperazin-1-yl)phenyl)piperidine-2,6-dione] | 15
Cc1cc(-c2cnc(Nc3cnn([C@H]4CC[C@@H](CN5CCN(c6ccc(C7CCC(=O)NC7=O)cc6)CC5)CC4)c3)c3nccn23)c(F)cc1F (relative stereo) [Compound 71, 3-(4-(4-(((cis)-4-(4-((5-(2,4-difluoro-5-methylphenyl)imidazo[1,2-a]pyrazin-8-yl)amino)-1H-pyrazol-1-yl)cyclohexyl)methyl)piperazin-1-yl)phenyl) piperidine-2,6-dione] | 13
Cc1cc(-c2cnc(Nc3cnn(C4CCN(CCN5CCN(c6ccc([C@@]7(C)CCC(=O)NC7=O)cc6)CC5)CC4)c3)c3nccn23)c(F)cc1F [Compound 77, (R)-3-(4-(4-(2-(4-(4-((5-(2,4-difluoro-5-methylphenyl)imdazo [1,2-a]pyrazin-8-yl)amino)-1H-pyrazol-1-yl)piperidin-1-yl)ethyl)piperazin-1-yl)phenyl)-3-methylpiperidine-2,6-dione] | 8.3
Cc1cc(-c2cnc(Nc3cnn(C4CCN(CCN5CCN(c6ccc(C7CCC(=O)NC7=O)cc6)C[C@H]5C)CC4)c3)c3nccn23)c(F)cc1F (stereo partly drawn) [Compound 9, 3-(4-((R)-4-(2-(4-(4-((5-(2,4-difluoro-5-methylphenyl)imdazo [1,2-a]pyrazin-8-yl)amino)-1H-pyrazol-1-yl)piperidin-1-yl)ethyl)-3-methylpiperazin-1-yl)phenyl) piperidine-2,6-dione] | 14
Cc1cccc(-c2cnc(Nc3cnn(C4CCN(CC(=O)N5CCN(c6ccc7c(c6)CN(C6CCC(=O)NC6=O)C7=O)CC5)CC4)c3)c3nccn23)c1 (stereo not drawn) [Compound 19, 3-(1-oxo-5-(4-(2-(4-(4-((5-(m-tolyl)imidazo[1,2-a]pyrazin-8-yl)amino)-1H-pyrazol-1-yl)piperidin-1-yl)acetyl)piperazin-1-yl)isoindolin-2-yl)piperidine-2,6-dione] | 18
Cc1cc(-c2cnc(Nc3cnn(C4CCN(CCN5CCN(c6ccc([C@]7(C)CCC(=O)NC7=O)cc6)CC5)CC4)c3)c3nccn23)c(F)cc1F [Compound 76, (S)-3-(4-(4-(2-(4-(4-((5-(2,4-difluoro-5-methylphenyl)imdazo [1,2-a]pyrazin-8-yl)amino)-1H-pyrazol-1-yl)piperidin-1-yl)ethyl)piperazin-1-yl)phenyl)-3-methylpiperidine-2,6-dione] | 64
Cc1cc(-c2cnc(Nc3cnn(C4CCN(CCN5CCN(c6ccc(C7CCC(=O)NC7=O)cc6)CC5)CC4)c3)c3nccn23)c(F)cc1F (stereo not drawn) [Compound 8, 3-(4-(4-(2-(4-(4-((5-(2,4-difluoro-5-methylphenyl)imidazo[1,2-a]pyrazin-8-yl)amino)-1H-pyrazol-1-yl)piperidin-1-yl)ethyl)piperazin-1-yl)phenyl)piperidine-2,6-dione] | 9

— patent US20260216347A1, “Substituted Imidazo-Based Compounds as Ligand Directed Degraders of IRAK3” (Celgene Corporation, priority 2022, published 2026)
